Data set [1] relates to human PCSK9. The data set can be described thus: PCSK9 AlphaLISA assay, PCSK9 lowering in WT7 cells. Conditions: WT7 cells (Huh7 stably over-expressing human PCSK9); secreted PCSK9 by AlphaLISA; overnight incubation (16-24 h); top concentration 20 μM; read-out: Cell Based PCSK9 IC50. The source says: An in-vitro AlphaLISA assay (Perkin Elmer) was developed in order to quantitate the level of PCSK9 secreted into the cell culture media following compound treatment. To detect and measure PCSK9 protein an in-house generated anti-PCSK9 antibody was coupled to AlphaLISA acceptor beads by an external vendor (PerkinElmer) and a second internally developed anti-PCSK9 antibody with an epiptope distinct from that of the acceptor beads was biotinylated in house. Streptavidin coated-donor beads (Perkin Elmer) are also included in the assay mixture which then binds the biotinylated anti-PCSK9 antibody and in the presence of PCSK9 this donor complex and acceptor beads are brought into close proximity. […] The ability of compound to modulate PCSK9 protein levels in conditioned media by AlphaLISA was assessed in the human hepatocellular carcinoma cell line Huh7, stably over-expressing human PCSK9. […] Following plasmid transfection the stable WT7 clone was identified and maintained under Zeocin selection. Compound screening was performed in 384-well plates where WT7 cells were plated at a density of 7500 cells per well in 20 μL of tissue culture media containing compound in an eleven point, 0.5 log dilution format at a high treatment concentration of 20 μM in a final volume of 0.5% DMSO. In additional to these test compound conditions each screening plate also included wells that contained 20 μM puromycin as a positive assay control defined as high percent effect, HPE, as well as wells containing media in 0.5% DMSO as a negative treatment control defined as zero percent effect, ZPE. After overnight compound incubation (16-24 h) the tissue culture media was collected and an aliquot from each sample was transferred to individual wells of a 384-well white Optiplate (Perkin Elmer). The coupled antibodies and donor beads were added to the assay plates in a buffer composed of 30 mM Tris pH 7.4, 0.02% Tween-20 and 0.02% Casein. Anti-PCSK9 acceptor beads (final concentration of 10 μg/mL) and anti-PCSK9 biotinylated antibody (final concentration of 3 nM) were added and incubated for 30 minutes at room temperature followed by the addition of the streptavidin donor beads (final concentration 40 μg/mL) for an additional 60 minutes. Additionally a standard curve was generated where AlphaLISA reagents were incubated in wells spiked with recombinant human PCSK9 diluted in tissue culture media from 5000 ng/mL to 0.6 ng/mL. […] The test compound data were converted into percent effect, using the ZPE and HPE controls as 0% and 100% activity, respectively. The equation used for converting each well reading into percent effect was:
[formula] IC50 was then calculated and reported as the midpoint in the percent effect curve in molar units and the values are reported under the Cell Based PCSK9 IC50 (μM) column header within Table 1 Biological Data. Additionally, to monitor the selectivity of compound response for PCSK9 the level of a second secreted protein, Transferrin, was measured from the same conditioned media treated with test compound by AlphaLISA. […] To detect and quantify effects on Transferrin 0.01 mL of the culture media was transferred to a 384-well white Optiplate and 0.01 mL of media was added to bring the volume to 0.02 ml. Anti-Transferrin acceptor beads were added to a final concentration of 10 μg/mL, biotinylated anti-Transferrin at 3 nM and streptavidin donor beads at 40 μg/mL. Percent effect and IC50 for Transferrin was computed in a similar manner as that described for PCSK9.

Data set [2] deals with human PCSK9. The data set can be described thus: Cell Free PCSK9 Assay (PCSK9-luciferase RNA translated in HeLa cell lysate). The format is biochemical. The following applies: 30° C. for 45 minutes, luciferase readout, top concentration 100 μM. How it is done: In order to eliminate the permeability barrier inherent to the WT7 and SCHH cell-based assays a cell-free system was also established to access compound activity. […] The construct was then in-vitro transcribed using the MEGAscript T7 Kit (Life Technologies) and RNA subsequently purified incorporating the MEGAclear Kit (Life Technologies) according to manufacturer's protocols. […] Growth was in a 50 L wavebag at a rocker speed of 25 rpm and angle 6.1 with 5% CO2 and 0.2 LPM flow rate with cells harvested at a density of 2-2.5e6/ml. Lysates additionally contained 1 tablet of Roche cOmplete-EDTA protease inhibitors per 50 ml with tris(2-carboxyethyl)phosphine (Biovectra) substituted for dithiothreitol, and were clarified by an additional final centrifugation at 10,000 rpm in a Sorvall SS34 rotor at 4° C. for 10 minutes. Compound screening was performed in 384-well plates in an eleven point, 0.5 log dilution format at a top test compound concentration of 100 μM in a final volume of 0.5% DMSO. […] Upon assay completion 1 μL from each reaction solution was removed and transferred to a second 384-well Optiplate (Perkin Elmer) containing 24 μL of SteadyGlo (Promega) and signal intensity was measured on the Envision (Perkin Elmer) using the enhanced luminescence protocol. […] The test compound data were converted into percent effect, using the ZPE and HPE controls as 0% and 100% activity, respectively, applying Equation 1 above. IC50 was then calculated and reported as the midpoint in the percent effect curve in molar units and the values are reported under the Cell Free PCSK9 IC50 (μM) column header within Table 1 Biological Data.

The next data set concerns PCSK9. As to the kind of experiment: PCSK9 lowering in sandwich culture human hepatocytes (SCHH). The format is cell-based. The following applies: maximum response versus vehicle. How it is done: Test compound in-vitro pharmacokinetic and pharmacodynamic relationships were measured in sandwich culture primary cryopreserved human hepatocytes. Within these studies SCHH cells (BD Biosciences IVT) were thawed at 37° C. then placed on ice, after which the cells were added to pre-warmed (37° C.) In VitroGRO-HT media and centrifuged at 50×g for 3 min. The cell pellet was re-suspended to 0.8×10^6 cells/mL in InVitroGRO-CP plating medium and cell viability determined by trypan blue exclusion. On day 1, hepatocyte suspensions were plated in BioCoat 96-well plates at a density of 80000 cells/well in a volume of 0.1 mL/well. After 18 to 24 hours of incubation at 37° C. in 5% CO2, cells were overlaid with ice-cold 0.25 mg/mL BD Matrigel Matrix Phenol Red-Free in incubation medium at 0.1 mL/well. Cultures were maintained at 37° C. in 5% CO2 in InVitroGRO-HI (FBS-free media), which was replaced every 24 hours and time course treatments were initiated on day 5. Prior to compound treatment cell plates were washed 3 times with 0.1 mL/well InVitroGRO-HI and 0.09 mL of media was added back in preparation for the compound additions. 1 uL of either DMSO or compound DMSO stocks at 30 mM, 10 mM, 3 mM and 1 mM were stamped into 96 well V bottom polypropylene plates. 0.099 mL of media was added to the compound plate and mixed thoroughly before the addition of 0.010 mL from the interim compound plate to the cell plate. […] At the indicated time, 0.08 mL of media was removed from the cell plates and frozen for subsequent analysis of secreted PCSK9 by AlphaLISA and for determination of drug levels in the media by liquid chromatography-tandem mass spectrometry (LC-MS/MS). The remaining media was then aspirated and the cell layers were washed 3× with ice cold Hanks Balanced Salt Solution (HBSS) under shaking conditions to remove the matrigel overlay and plates were then stored at −20° C. for subsequent determination of drug levels in the cells by LC-MS/MS. AlphaLISA determination of PCSK9 protein levels within the conditioned media was performed ultilizing the identical reagents and detection protocols described above for the WT7 cells.

pIC50: −log10 of the molar value. A value given as a limit tells only on which side of the number the result lay.

For `CCC(OC(=O)OC(C)C)n1nnc(-c2c(-c3ccc(C(=O)N(c4ncccc4C)[C@@H]4CCCNC4)cc3)cnn2C)n1` (single isomer, unassigned) [Example 41], the figures for the pIC50 in the data set on human PCSK9 [1] and with human PCSK9 [2] were under 4.71 and 4.81, respectively. In addition, the “Sandwich Culture Hepatocyte (SCHH) PCSK9 Lowering” value in the data set with PCSK9 (at 6 h at 30 uM) stood at 35% at 6 h at 30 uM.

On to `CCOC(=O)OC(CC)n1nnc(-c2c(-c3ccc(C(=O)N(c4ncccc4C)[C@@H]4CCCNC4)cc3)cnn2C)n1` (single isomer, unassigned) [Example 33], for which the pIC50 (in general, the IC50 on a negative log10 scale, so that one unit is a factor of ten) with human PCSK9 [1] is under 4.70; with human PCSK9 [2], 4.63. Moreover, the “Sandwich Culture Hepatocyte (SCHH) PCSK9 Lowering” value with PCSK9 (at 6 h at 30 uM) is 32% at 6 h at 30 uM.

Consider `CCC(=O)OC(C)n1nnc(-c2c(-c3ccc(C(=O)N(c4ncccc4C)[C@@H]4CCCNC4)cc3)cnn2C)n1` (single isomer, unassigned) [Example 45], for which the pIC50 with human PCSK9 [1] was under 4.70; with human PCSK9 [2] it was 4.60. In addition, the “Sandwich Culture Hepatocyte (SCHH) PCSK9 Lowering” value with PCSK9 (at 6 h at 30 uM) stood at 8% at 6 h at 30 uM.

As to `Cc1cccnc1N(C(=O)c1ccc(-c2cnn(C)c2-c2nnn(C(C)OC(=O)C(C)C)n2)cc1)[C@@H]1CCCNC1` (single isomer, unassigned) [Example 50], the pIC50 was under 4.70 in the data set on human PCSK9 [1] and 5.10 in the data set on human PCSK9 [2]. Further, in the data set with PCSK9 (at 6 h at 30 uM), the “Sandwich Culture Hepatocyte (SCHH) PCSK9 Lowering” value was 37% at 6 h at 30 uM.

Turning to `Cc1cccnc1N(C(=O)c1ccc(-c2cnn(C)c2-c2nnn(C(OC(=O)C(C)C)C(C)C)n2)cc1)[C@@H]1CCCNC1` (single isomer, unassigned) [Example 55], the pIC50 with human PCSK9 [1] was under 4.72; in the data set on human PCSK9 [2], 4.70. In addition, in the data set with PCSK9 (at 6 h at 30 uM), the “Sandwich Culture Hepatocyte (SCHH) PCSK9 Lowering” value worked out at 40% at 6 h at 30 uM.

On to `CCC(=O)OC(C(C)C)n1nnc(-c2c(-c3ccc(C(=O)N(c4ncccc4C)[C@@H]4CCCNC4)cc3)cnn2C)n1` (single isomer, unassigned) [Example 48], for which the values for the pIC50 with human PCSK9 [1] and with human PCSK9 [2] were under 4.70 and 5.11, respectively. Further, the “Sandwich Culture Hepatocyte (SCHH) PCSK9 Lowering” value with PCSK9 (at 6 h at 30 uM) is recorded as 16% at 6 h at 30 uM.

With `Cc1cccnc1N(C(=O)c1ccc(-c2cnn(C)c2-c2nnn(C(C)OC(=O)C(C)C)n2)cc1)[C@@H]1CCCNC1` (single isomer, unassigned) [Example 51], the results for the pIC50 in the data set on human PCSK9 [1] and in the data set on human PCSK9 [2] were under 4.70 and 5.45, respectively. Besides, in the data set with PCSK9 (at 6 h at 30 uM), the “Sandwich Culture Hepatocyte (SCHH) PCSK9 Lowering” value is 48% at 6 h at 30 uM.

For `CCOC(=O)OC(C)OC(=O)c1c(-c2ccc(C(=O)N(c3ncccc3Cl)[C@@H]3CCCNC3)cc2)cnn1C` (stereo partly drawn) [Example 8, 1-[(ethoxycarbonyl)oxy]ethyl 4-(4-{(3-chloropyridin-2-yl)[(3R)-piperidin-3-yl]carbamoyl}phenyl)-1-methyl-1H-pyrazole-5-carboxylate], the pIC50 in the data set on human PCSK9 [1] is 5.02; with human PCSK9 [2], 5.43. In addition, the “Sandwich Culture Hepatocyte (SCHH) PCSK9 Lowering” value in the data set with PCSK9 (at 8 h at 30 μM) came out at 70% at 8 h at 30 μM.

For `Cc1cccnc1N(C(=O)c1ccc(-c2cnn(C)c2-c2nnn(C(OC(=O)OC(C)C)C(C)C)n2)cc1)[C@@H]1CCCNC1` (single isomer, unassigned) [Example 42], the pIC50 in the data set with human PCSK9 [1] is under 4.70; in the data set on human PCSK9 [2] it was 5.13. In addition, in the data set with PCSK9 (at 6 h at 30 uM), the “Sandwich Culture Hepatocyte (SCHH) PCSK9 Lowering” value was found to be 19% at 6 h at 30 uM.

For `CCOC(=O)OC(n1nnc(-c2c(-c3ccc(C(=O)N(c4ncccc4C)[C@@H]4CCCNC4)cc3)cnn2C)n1)C(C)(C)C` (single isomer, unassigned) [Example 36], the pIC50 is under 4.70 with human PCSK9 [1] and 5.27 in the data set on human PCSK9 [2]. The “Sandwich Culture Hepatocyte (SCHH) PCSK9 Lowering” value with PCSK9 (at 6 h at 30 uM) amounted to 27% at 6 h at 30 uM.

With `CCC(=O)OC(C)n1nnc(-c2c(-c3ccc(C(=O)N(c4ncccc4C)[C@@H]4CCCNC4)cc3)cnn2C)n1` (single isomer, unassigned) [Example 44], the pIC50 with human PCSK9 [1] was under 4.70; in the data set with human PCSK9 [2], 5.36. Moreover, in the data set with PCSK9 (at 6 h at 30 uM), the “Sandwich Culture Hepatocyte (SCHH) PCSK9 Lowering” value amounted to 12% at 6 h at 30 uM.

With `CCOC(=O)OC(n1nnc(-c2c(-c3ccc(C(=O)N(c4ncccc4C)[C@@H]4CCCNC4)cc3)cnn2C)n1)C(C)(C)C` (single isomer, unassigned) [Example 37], the pIC50 in the data set with human PCSK9 [1] is under 4.70; with human PCSK9 [2] it was 4.64. Moreover, the “Sandwich Culture Hepatocyte (SCHH) PCSK9 Lowering” value in the data set with PCSK9 (at 6 h at 30 uM) is 25% at 6 h at 30 uM.

Values taken from US9227956B2 (Pfizer Inc., priority 2013, dated 2016).
